Source: patent publication US9486506B2 (Novo Nordisk A/S, priority 2011, dated 2016)
Numbered stars: 1 amine (or outer) side, 2 acyl side, 3 side chain; on linkers, the order of the positions; unused ones are H or OH. Side chains are listed from the residue outwards. Peptide text beside a SMILES is read from it. * marks the point of attachment. C18 diacid = O=C(O)CCCCCCCCCCCCCCCCC(=O)*; C16 diacid = O=C(O)CCCCCCCCCCCCCCC(=O)*; γGlu = O=C(O)[C@H](CCC(=O)[*:2])N[*:1]; AEEA = NCCOCCOCC(=O)O

Biological target: T1, glucagon receptor (Homo sapiens, UniProt P47871)
T1 construct: expressed in transfected cells
T1 sequence (P47871 26-477): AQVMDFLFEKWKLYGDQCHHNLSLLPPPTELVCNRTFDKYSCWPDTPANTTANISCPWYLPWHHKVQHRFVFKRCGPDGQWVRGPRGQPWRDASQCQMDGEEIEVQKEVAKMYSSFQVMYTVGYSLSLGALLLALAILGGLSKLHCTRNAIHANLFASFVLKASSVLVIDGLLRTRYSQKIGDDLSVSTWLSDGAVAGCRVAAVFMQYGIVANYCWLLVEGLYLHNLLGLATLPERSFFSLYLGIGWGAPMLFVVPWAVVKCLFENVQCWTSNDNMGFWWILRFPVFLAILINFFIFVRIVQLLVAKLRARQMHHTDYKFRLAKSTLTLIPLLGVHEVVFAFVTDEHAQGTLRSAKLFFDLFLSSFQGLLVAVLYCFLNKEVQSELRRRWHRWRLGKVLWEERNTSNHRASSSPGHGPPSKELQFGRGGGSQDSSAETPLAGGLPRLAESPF
Assay: Assay (I) Glucagon activity (cAMP biosensor, FLIPR)
Assay type: cell-based
Method: The cells (14000 per well) were incubated (37° C., 5% CO2) overnight in 384-well plates. Next day the cells were loaded with a calcium responsive dye that only distributed into the cytoplasm. Probenecid, an inhibitor of the organic anion transporter, was added to prevent the dye from leaving the cell. A PDE inhibitor was added to prevent formatted cAMP from being degraded. The plates were placed into a […] and the glucagon analogues were added. End point data were collected after 6 minutes. An increase in intracellular cAMP was proportional to an increased in calcium concentrations in the cytoplasm. When calcium was bound the dry a fluorescence signal was generated. EC50-values were calculated in Prism5.

SMILES | EC50 [nM]
CC(C)C[C@H](NC(=O)[C@H](Cc1ccc(O)cc1)NC(=O)[C@H](CCCNC(=N)N)NC(=O)[C@H](CO)NC(=O)[C@H](Cc1ccc(O)cc1)NC(=O)[C@H](CC(=O)O)NC(=O)[C@H](CO)NC(=O)[C@@H](NC(=O)[C@H](Cc1ccccc1)NC(=O)[C@@H](NC(=O)CNC(=O)[C@H](CCC(N)=O)NC(=O)[C@H](CO)NC(=O)[C@@H](N)Cc1c[nH]cn1)[C@@H](C)O)[C@@H](C)O)C(=O)N[C@@H](CCC(=O)O)C(=O)N[C@@H](CO)C(=O)N[C@@H](CCCNC(=N)N)C(=O)N[C@@H](CCCNC(=N)N)C(=O)N[C@@H](C)C(=O)N[C@@H](CCC(N)=O)C(=O)N[C@@H](CCC(=O)O)C(=O)N[C@@H](Cc1ccccc1)C(=O)N[C@H](C(=O)N[C@@H](CCCCNC(=O)CC[C@H](NC(=O)CC[C@H](NC(=O)COCCOCCNC(=O)COCCOCCNC(=O)CC[C@H](NC(=O)CCCCCCCCCCCCCCC(=O)O)C(=O)O)C(=O)O)C(=O)O)C(=O)N[C@@H](Cc1c[nH]c2ccccc12)C(=O)N[C@@H](CC(C)C)C(=O)N[C@@H](CC(C)C)C(=O)N[C@@H](CO)C(=O)N[C@H](C(=O)O)[C@@H](C)O)C(C)C [Example 71, N^ε24-[(4S)-4-carboxy-4-[[(4S)-4-carboxy-4-[[2-[2-[2-[[2-[2-[2-[[(4S)-4-carboxy-4-(15-carboxypentadecanoylamino)butanoyl]amino]ethoxy]ethoxy]acetyl]amino]ethoxy]ethoxy]acetyl]amino]butanoyl]amino]butanoyl]-[Arg12,Glu15,Glu21,Lys24,Leu27,Ser28]-Glucagon] (H-HSQGTFTSDYSRYLESRRAQEFVK([γGlu-γGlu-AEEA-AEEA-γGlu-C16 diacid])WLLST-OH) | 0.072
CC(C)C[C@H](NC(=O)[C@H](Cc1ccc(O)cc1)NC(=O)[C@H](CCCCN)NC(=O)[C@H](CO)NC(=O)[C@H](Cc1ccc(O)cc1)NC(=O)[C@H](CC(=O)O)NC(=O)[C@H](CO)NC(=O)[C@@H](NC(=O)[C@H](Cc1ccccc1)NC(=O)[C@@H](NC(=O)CNC(=O)[C@H](CCC(N)=O)NC(=O)[C@H](CO)NC(=O)[C@@H](N)Cc1c[nH]cn1)[C@@H](C)O)[C@@H](C)O)C(=O)N[C@@H](CCC(=O)O)C(=O)N[C@@H](CO)C(=O)N[C@@H](CCCNC(=N)N)C(=O)N[C@@H](CCCNC(=N)N)C(=O)N[C@@H](C)C(=O)N[C@@H](CCC(N)=O)C(=O)N[C@@H](CC(=O)O)C(=O)N[C@@H](Cc1ccccc1)C(=O)N[C@H](C(=O)N[C@@H](CCCCNC(=O)CC[C@H](NC(=O)CC[C@H](NC(=O)COCCOCCNC(=O)COCCOCCNC(=O)CC[C@H](NC(=O)CCCCCCCCCCCCCCCCC(=O)O)C(=O)O)C(=O)O)C(=O)O)C(=O)N[C@@H](Cc1c[nH]c2ccccc12)C(=O)N[C@@H](CC(C)C)C(=O)N[C@@H](CC(C)C)C(=O)N[C@@H](CCC(N)=O)C(=O)N[C@H](C(=O)O)[C@@H](C)O)C(C)C [Example 60, N^ε24-[(4S)-4-carboxy-4-[[(4S)-4-carboxy-4-[[2-[2-[2-[[2-[2-[2-[[(4S)-4-carboxy-4-(17-carboxyheptadecanoylamino)butanoyl]amino]ethoxy]ethoxy]acetyl]amino]ethoxy]ethoxy]acetyl]amino]butanoyl]amino]butanoyl]-[Glu15,Lys24,Leu27,Gln28]-Glucagon] | 0.517
CC(C)C[C@H](NC(=O)[C@H](CC(=O)O)NC(=O)[C@H](CC(C)C)NC(=O)[C@H](Cc1ccc(O)cc1)NC(=O)[C@H](CCCNC(=N)N)NC(=O)[C@H](CO)NC(=O)[C@H](Cc1ccc(O)cc1)NC(=O)[C@H](CC(=O)O)NC(=O)[C@H](CO)NC(=O)[C@@H](NC(=O)[C@H](Cc1ccccc1)NC(=O)[C@@H](NC(=O)CNC(=O)[C@H](CCC(N)=O)NC(=O)[C@H](CO)NC(=O)[C@@H](N)Cc1c[nH]cn1)[C@@H](C)O)[C@@H](C)O)C(=O)N[C@@H](CCCNC(=N)N)C(=O)N[C@@H](CCCNC(=N)N)C(=O)N[C@@H](C)C(=O)N[C@@H](CCC(N)=O)C(=O)N[C@@H](CC(=O)O)C(=O)N[C@@H](Cc1ccccc1)C(=O)N[C@H](C(=O)N[C@@H](CCCCNC(=O)CC[C@H](NC(=O)COCCOCCNC(=O)COCCOCCNC(=O)CC[C@H](NC(=O)CC[C@H](NC(=O)CCCCCCCCCCCCCCCCC(=O)O)C(=O)O)C(=O)O)C(=O)O)C(=O)N[C@@H](Cc1c[nH]c2ccccc12)C(=O)N[C@@H](CC(C)C)C(=O)N[C@@H](CC(C)C)C(=O)N[C@@H](CO)C(=O)N[C@H](C(=O)O)[C@@H](C)O)C(C)C [Example 27, N^ε24-[(4S)-4-carboxy-4-[[2-[2-[2-[[2-[2-[2-[[(4S)-4-carboxy-4-[[(4S)-4-carboxy-4-(17-carboxyheptadecanoylamino)butanoyl]amino]butanoyl]amino]ethoxy]ethoxy]acetyl]amino]ethoxy]ethoxy]acetyl]amino]butanoyl]-[Arg^12,Leu^16,Lys^24,Leu^27,Ser^28]-Glucagon] (H-HSQGTFTSDYSRYLDLRRAQDFVK([γGlu-AEEA-AEEA-γGlu-γGlu-C18 diacid])WLLST-OH) | 0.91
CC(C)C[C@H](NC(=O)[C@H](Cc1c[nH]c2ccccc12)NC(=O)[C@H](CCCCNC(=O)CC[C@H](NC(=O)CC[C@H](NC(=O)COCCOCCNC(=O)COCCOCCNC(=O)CC[C@H](NC(=O)CCCCCCCCCCCCCCC(=O)O)C(=O)O)C(=O)O)C(=O)O)NC(=O)[C@@H](NC(=O)[C@H](Cc1ccccc1)NC(=O)[C@H](CC(=O)O)NC(=O)[C@H](CCC(N)=O)NC(=O)[C@H](C)NC(=O)[C@H](CCCNC(=N)N)NC(=O)[C@H](CCCNC(=N)N)NC(=O)[C@@H](NC(=O)[C@H](CC(=O)O)NC(=O)[C@H](CC(C)C)NC(=O)[C@H](Cc1ccc(O)cc1)NC(=O)[C@H](CCCCN)NC(=O)[C@H](CO)NC(=O)[C@H](Cc1ccc(O)cc1)NC(=O)[C@H](CC(=O)O)NC(=O)[C@H](CO)NC(=O)[C@@H](NC(=O)[C@H](Cc1ccccc1)NC(=O)[C@@H](NC(=O)CNC(=O)[C@H](CCC(N)=O)NC(=O)[C@H](CO)NC(=O)[C@@H](N)Cc1c[nH]cn1)[C@@H](C)O)[C@@H](C)O)[C@@H](C)O)C(C)C)C(=O)N[C@@H](CC(C)C)C(=O)N[C@@H](CO)C(=O)N[C@H](C(=O)O)[C@@H](C)O [Example 81, N^ε24-[(4S)-4-carboxy-4-[[(4S)-4-carboxy-4-[[2-[2-[2-[[2-[2-[2-[[(4S)-4-carboxy-4-(15-carboxypentadecanoylamino)butanoyl]amino]ethoxy]ethoxy]acetyl]amino]ethoxy]ethoxy]acetyl]amino]butanoyl]amino]butanoyl]-[Thr16,Lys24,Leu27,Ser28]-Glucagon] | 0.017
CC(C)C[C@H](NC(=O)[C@H](Cc1c[nH]c2ccccc12)NC(=O)[C@H](CCCCNC(=O)CC[C@H](NC(=O)CC[C@H](NC(=O)COCCOCCNC(=O)COCCOCCNC(=O)CC[C@H](NC(=O)CCCCCCCCCCCCCCC(=O)O)C(=O)O)C(=O)O)C(=O)O)NC(=O)[C@@H](NC(=O)[C@H](Cc1ccccc1)NC(=O)[C@H](CC(=O)O)NC(=O)[C@H](CCC(N)=O)NC(=O)[C@H](C)NC(=O)[C@H](CCCNC(=N)N)NC(=O)[C@H](CCCNC(=N)N)NC(=O)[C@@H](NC(=O)[C@H](CC(=O)O)NC(=O)[C@H](CC(C)C)NC(=O)[C@H](Cc1ccc(O)cc1)NC(=O)[C@H](CCCNC(=N)N)NC(=O)[C@H](CO)NC(=O)[C@H](Cc1ccc(O)cc1)NC(=O)[C@H](CC(=O)O)NC(=O)[C@H](CO)NC(=O)[C@@H](NC(=O)[C@H](Cc1ccccc1)NC(=O)[C@@H](NC(=O)CNC(=O)[C@H](CCC(N)=O)NC(=O)[C@H](CO)NC(=O)[C@@H](N)Cc1c[nH]cn1)[C@@H](C)O)[C@@H](C)O)C(C)C)C(C)C)C(=O)N[C@@H](CC(C)C)C(=O)N[C@@H](CO)C(=O)N[C@H](C(=O)O)[C@@H](C)O [Example 97, N^ε24-[(4S)-4-carboxy-4-[[(4S)-4-carboxy-4-[[2-[2-[2-[[2-[2-[2-[[(4S)-4-carboxy-4-(15-carboxypentadecanoylamino)butanoyl]amino]ethoxy]ethoxy]acetyl]amino]ethoxy]ethoxy]acetyl]amino]butanoyl]amino]butanoyl]-[Arg12,Val16,Lys24,Leu27,Ser28]-Glucagon] (H-HSQGTFTSDYSRYLDVRRAQDFVK([γGlu-γGlu-AEEA-AEEA-γGlu-C16 diacid])WLLST-OH; N-terminus and C-terminus assumed) | 0.026
CC[C@H](C)[C@H](NC(=O)[C@H](CC(=O)O)NC(=O)[C@H](CC(C)C)NC(=O)[C@H](Cc1ccc(O)cc1)NC(=O)[C@H](CCCCN)NC(=O)[C@H](CO)NC(=O)[C@H](Cc1ccc(O)cc1)NC(=O)[C@H](CC(=O)O)NC(=O)[C@H](CO)NC(=O)[C@@H](NC(=O)[C@H](Cc1ccccc1)NC(=O)[C@@H](NC(=O)CNC(=O)[C@H](CCC(N)=O)NC(=O)[C@H](CO)NC(=O)[C@@H](N)Cc1c[nH]cn1)[C@@H](C)O)[C@@H](C)O)C(=O)N[C@@H](CCCNC(=N)N)C(=O)N[C@@H](CCCNC(=N)N)C(=O)N[C@@H](C)C(=O)N[C@@H](CCC(N)=O)C(=O)N[C@@H](CC(=O)O)C(=O)N[C@@H](Cc1ccccc1)C(=O)N[C@H](C(=O)N[C@@H](CCCCNC(=O)CC[C@H](NC(=O)CC[C@H](NC(=O)COCCOCCNC(=O)COCCOCCNC(=O)CC[C@H](NC(=O)CCCCCCCCCCCCCCCCC(=O)O)C(=O)O)C(=O)O)C(=O)O)C(=O)N[C@@H](Cc1c[nH]c2ccccc12)C(=O)N[C@@H](CC(C)C)C(=O)N[C@@H](CC(C)C)C(=O)N[C@@H](CC(N)=O)C(=O)N[C@H](C(=O)O)[C@@H](C)O)C(C)C [Example 8, N^ε24-[(4S)-4-carboxy-4-[[(4S)-4-carboxy-4-[[2-[2-[2-[[2-[2-[2-[[(4S)-4-carboxy-4-(17-carboxyheptadecanoylamino)butanoyl]amino]ethoxy]ethoxy]acetyl]amino]ethoxy]ethoxy]acetyl]amino]butanoyl]amino]butanoyl]-[Ile^16,Lys^24,Leu^27]-Glucagon] | 0.081
